We go through 4 compounds from patent US20200222406A1, “METHODS FOR TREATING OR PREVENTING CARDIOVASCULAR DISORDERS AND LOWERING RISK OF CARDIOVASCULAR EVENTS” (DALCOR PHARMA UK LTD., LEATHERHEAD, ZUG BRANCH, priority 2017, published 2020).

Data set [1] has as its target T1, CETP (Homo sapiens, UniProt P11597).
T1 construct: endogenous in cells; host or cells: patients in Phase III clinical trials (plasma CETP)
T1 sequence (P11597 18-493): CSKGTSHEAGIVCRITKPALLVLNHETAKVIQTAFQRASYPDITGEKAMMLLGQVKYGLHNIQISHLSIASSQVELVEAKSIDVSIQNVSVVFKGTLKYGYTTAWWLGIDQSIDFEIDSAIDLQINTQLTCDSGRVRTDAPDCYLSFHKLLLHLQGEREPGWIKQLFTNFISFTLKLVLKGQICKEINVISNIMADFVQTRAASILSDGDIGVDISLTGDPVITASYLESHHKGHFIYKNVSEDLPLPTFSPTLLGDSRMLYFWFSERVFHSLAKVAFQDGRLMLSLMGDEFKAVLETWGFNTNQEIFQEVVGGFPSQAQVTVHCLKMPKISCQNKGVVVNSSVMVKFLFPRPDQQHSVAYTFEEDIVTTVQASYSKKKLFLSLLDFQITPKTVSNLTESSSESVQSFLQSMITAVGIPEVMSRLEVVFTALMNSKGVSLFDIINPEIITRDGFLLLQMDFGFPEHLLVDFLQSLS
The settings on record: cited from earlier work.

Data set [2] deals with T1, CETP. The conditions noted are these: Phase III, with atorvastatin concomitantly vs atorvastatin alone, trial terminated; cited from earlier work.
In data set [3] the test system is endothelial-dependent vasodilatation. In words: ACh-induced endothelial-dependent vasodilatation under selective pharmacological blockade. Set-up: species or system mice. An excerpt:
(§1) Selective pharmacological blockade of the signaling pathways responsible for endothelial-dependent vasodilatation (Vanhoutte et al., Acta Physiol (Oxf). (2017) 219:22-96) was then used to identify the mechanism responsible for the improvement observed in Adcy9^Gt/Gt mice.

In data set [4] the test system is flow-mediated vasodilatation. In words: Flow-mediated vasodilatation under pharmacological blockade. The settings on record: Adcy9^Gt/Gt mice.
From the text: as §1

The mark [5] stands for this setting: 600 mg dalcetrapib vs placebo, patients with recent ACS.

Consider `CCC(CC)CC1(C(=O)Nc2ccccc2SC(=O)C(C)C)CCCCC1` [dalcetrapib], for which, in data set [1] (setting [5]), the HDL-c entry was “marked increase” and the cardiovascular events result is recorded as “did not show a significant reduction”. In addition, the “efficacy relative to statins alone” value in data set [1] (Phase III, trial halted) is listed as “lack of efficacy”.
On to `CCOC(=O)N1c2ccc(C(F)(F)F)cc2[C@@H](N(Cc2cc(C(F)(F)F)cc(C(F)(F)F)c2)C(=O)OC)C[C@H]1CC` [torcetrapib], for which the mortality entry in data set [2] is reported as “incidence of mortality”.
For `Cc1ccc(Cl)c(Nc2ccccc2C(=O)O)c1Cl` [meclofenamate], the ACh-induced vasodilatation result in data set [3] (Adcy9^Gt/Gt mice) is on record as “inhibited”.
For `NC(=NCCC[C@H](N)C(=O)O)N[N+](=O)[O-]` [L-NNA], the ACh-induced vasodilatation entry in data set [3] (Adcy9^Gt/Gt mice) and in data set [3] (WT mice) was “inhibited significantly” in each case. Also, the flow-mediated vasodilatation result in data set [4] was “numerically reduced”.
